The text below walks through data of patent US11679082B2, “Therapeutic constructs for co-delivery of mitotic kinase inhibitor and immune checkpoint inhibitor” (Oregon Health & Science University, priority 2019, dated 2023).

The test system of assay [1] is A549. The assay is described as follows: Cell cycle arrest in G2/M phase in A549. The class given is cell-based, human. To be noted: A549, 72 hr post treatment; siRNA 50 nM, BI 2536 10 nM. The protocol: FIGS. 2A-2D. Effects of siRNA against mitotic regulator PLK1 (siPLK1) on non-small-cell lung carcinoma (NSCLC) cell lines (A549 and H460). (FIG. 2A) 48-hr PLK1 mRNA knockdown (HPRT used as house-keeping gene) and (FIG. 2B) 72-hr PLK1 protein reduction at 50 nM siRNA dose. (FIG. 2C) 4-day cell viability at 30 nM siRNA dose. (FIG. 2D) Cell cycle arrest increase in G2/M phase in A549 72 hr post treatment. Antibody (cetuximab) conjugated NP was used to deliver the siPLK1 (C-siPLK1-NP) or scrambled siRNA control (C-siSCR-NP) at 50 nM siRNA BI 2536 (a PLK1 inhibitor) was used as a drug benchmark at 10 nM. Data presented as mean±SD from independent duplicates (10,000 events per sample); ****P<0.0001 vs. untreat control. Unless specified otherwise, “NP” denotes mesoporous silica nanoparticles coated with cross-linked PEI and PEG, as described in Ngamcherdtrakul et al., Advanced Functional Materials, 25(18):2646-2659, 2015 and U.S. Patent Application Publication No. 2017/0173169.

Assay [2] concerns PD-L1. As to the kind of experiment: PD-L1 surface expression of LLC-JSP cells by flow cytometry. The assay is classed as cell-based, mouse. The following applies: 500 ng/ml inhibitor. An excerpt: FIGS. 3A-3C. […] (FIG. 3A) PLK1 and PD-L1 mRNA expression in A549 (human NSCLC) at 48 hr post treatment with PLK1 siRNA (siPLK1) or scrambled siRNA (siSCR) normalized to HPRT housekeeping gene. Data presented as mean±SD from triplicates; ****P<0.0001. (FIG. 3B) PD-L1 surface expression of A549 ([…]) and LLC-JSP (a mouse NSCLC, FIG. 3C) at 72 hr post treatments assessed by flow cytometry (10,000 events per sample). Mouse siPLK1 seq. […] (SEQ ID NO: 1); Human siPLK1 seq. […] (SEQ ID NO: 2).
FIGS. 4A-4C Treatment effects of mitotic kinase inhibitors on (A) 3-day viability of LLC-JSP cells, (B) PD-L1 expression levels of surviving cells post treatment with 500 ng/ml of volasertib, alisertib, or AZD7762 as determined by flow cytometry and (C) their quantification.
FIGS. 6A-6D Nanoparticle delivery of PLK1 inhibitor volasertib (iPLK1-NP) to mouse NSCLC cells. (FIG. 6A) Schematic of synthesis of iPLK1-NP. (FIG. 6B) Hydrodynamic size of NP (with no inhibitor) and iPLK1-NP measured with Zetasizer. (FIG. 6C) Viability of LLC-JSP cells treated with volasertib (in 1% DMSO/PBS), iPLK1-NP (in PBS), or 1% DMSO/PBS for 4 days. Data presented as mean±SD from 4 independent samples; ****P<0.0001. (FIG. 6D) PD-L1 surface expression of LLC-JSP cells treated with PBS or iPLK1-NP (42 μg/ml NP, 210 ng/ml volasertib) for 3 days.
FIGS. 7A-7E. Nanoparticle for co-delivery of PLK1 inhibitor (iPLK1) and PD-L1 antibody (p-iPLK1-NP). (FIG. 7A) Schematic and (FIG. 7B) hydrodynamic size of p-iPLK1-NP containing 4 wt. % of PD-L1 antibody and 0.5 wt. % of PLK1 inhibitor. (FIG. 7C) 5-day cell viability of LLC-JSP cells treated with iPLK1-NP or p-iPLK1-NP. Data presented as mean±SD from 4 independent samples; ns—not significant. PD-L1 surface expression assessed by flow cytometry after LLC-JSP cells were incubated with various treatments as specified for (FIG. 7D) 2 hrs and (FIG. 7E) 2 days. […]
Flow cytometry: Cells (100K cells/well) were plated in 6 well plates overnight and treated with indicated treatments the next day. […] Cells were then washed with FACs buffer and analyzed with Guava (50,000 events per sample).

Assay [3] concerns LLC-JSP cells. As to the kind of experiment: Cell viability of LLC-JSP cells (Cell Titer Glo). The class given is cell-based, mouse. To be noted: 4 days, dose-dependent. In general terms: ATP-based viability assays read luminescence as a measure of living cells.
Experimental: (FIG. 14B) Treatment effect of ADC versus free alisertib of equivalent dose on viability of LLC-JSP cells (2-days). […] (FIG. 14C) Effect of PD-L1 on the viability of LLC-JSP cells.
Cell viability after treatments: Cells (1500/well) were plated in white flat bottom 96 well plate overnight. The following day, cells were treated with indicated treatments and media was changed 24 hr post treatment. 3-5 day post treatment, cell viability was assessed using Cell Titer Glo assay (Promega) following manufacturer's instructions. Luminescence was read with Tecan plate reader.
Assay [4] deals with acute myeloid leukemia. To be noted: phase III; cited from earlier work.
The test system of assay [5] is lung cancer. The following applies: phase II, 300 mg once every 3 weeks; cited from earlier work.

As for `CC[C@@H]1C(=O)N(C)c2cnc(Nc3ccc(C(=O)NC4CCN(C)CC4)cc3OC)nc2N1C1CCCC1` [B12536], the “cell cycle arrest in G2/M” value in assay [1] is reported as “G2/M growth arrest”. On to `NC(=O)Nc1cc(-c2cccc(F)c2)sc1C(=O)N[C@H]1CCCNC1` [AZD7762], for which the “surface PD-L1 level of surviving cells” value in assay [2] was “upregulated surface PD-L1 level”. On to `CC[C@@H]1C(=O)N(C)c2cnc(Nc3ccc(C(=O)N[C@H]4CC[C@H](N5CCN(CC6CC6)CC5)CC4)cc3OC)nc2N1C(C)C` [volasertib], for which, in assay [2], the “surface PD-L1 level of surviving cells” value is “upregulated surface PD-L1 level”. Also, the “viability of LLC-JSP cells vs vehicle” value in assay [3] is on record as “significantly reduced cell viability”. Moreover, the “primary endpoint of objective response” value in assay [4] is recorded as “failed to meet primary endpoint of objective response”. Besides, in assay [5], the response as monotherapy entry is “lack of response”. With `COc1cc(Nc2ncc3c(n2)-c2ccc(Cl)cc2C(c2c(F)cccc2OC)=NC3)ccc1C(=O)O` [alisertib], the “surface PD-L1 level of surviving cells” value in assay [2] is “upregulated surface PD-L1 level”.
